The values that follow come from patent publication US20240366511A1, “ORAL SOLID DOSE FORMULATIONS” (GLAXOSMITHKLINE INTELLECTUAL PROPERTY DEVELOPMENT LIMITED, priority 2021, published 2024).

Series [1] can be described thus: Solubility of gepotidacin mesylate dihydrate (Form 1) in water and simulated fluids. Type of series: physicochemical. Particulars: 20 °C, thermodynamic from solid, as free base, 20-25° C., read-out: Solubility (mg/mL of free base at 20-25° C.). The method, then:
The solubility of gepotidacin mesylate dihydrate (Form 1) was determined in simulated gastric fluid pH 1.6 (SGF), fasted state simulated intestinal fluid pH 6.5 (FaSSIF) and fed state simulated intestinal fluid pH 6.5 (FeSSIF) at ambient room temperature (20-25 C).

Series [2] is described as follows: Stability of crystal form under ambient conditions. The format is physicochemical. How it is done: In another preparation, a spatula (<20 mg) of gepotidacin mesylate dihydrate (Form 1) was suspended in IPA (<1.5 ml). The suspension was heated with a heat gun to dissolve most of the solids, and then left to slowly cool to room temperature. The resultant crystals were filtered and analysed by DSC, TGA, and XRPD.

Where a name gives a salt, the structure may show the parent alone. Read-outs that look alike come from different tables or passages of the source.

For `O=c1ccc2ncc(=O)n3c2n1C[C@H]3CN1CCC(NCc2cc3c(cn2)OCCC3)CC1` [gepotidacin mesylate dihydrate (Form 1)], the solubility in series [1] (Water) was more than 180 mg/mL; in series [1] (fasted state simulated intestinal fluid (FaSSIF), FaSSIF (pH 6.5)) it was 113 mg/mL; in series [1] (fed state simulated intestinal fluid (FeSSIF), FeSSIF (pH 6.5)), 99 mg/mL; in series [1] (simulated gastric fluid (SGF), simulated gastric fluid, SGF (pH 1.6)), 175 mg/mL.

For `CS(=O)(=O)O.O=c1cnc2ccc(=O)n3c2n1C[C@H]3CN1CCC(NCc2cc3c(cn2)OCCC3)CC1` [gepotidacin mesylate anhydrate], the “stability of the form” value in series [2] is listed as “unstable under ambient conditions”.
